Reference: publication PMC8659031, “Substituted Aryl Benzylamines as Potent and Selective Inhibitors of 17β-Hydroxysteroid Dehydrogenase Type 3” (Molecules, 2021)
Where two headings read alike, the source gives them in different places.

Assays:
[1] = tested on: LNCaP and PC-3 PCa cell lines; set-up: method as in PMID 18786604, PMID 23132791; conditions: introduction; cited from earlier work
[2] = biological target: T1, 17β-HSD3 (Homo sapiens, UniProt P37058); assay: Assay for 17β-HSD3 activity (TLC assay) in 293-EBNA cells stably transfected with 17β-HSD3; assay type: cell-based; conditions: for inhibition at 10 µM: 293-EBNA, mean of at least two measurements, typically SD ±5%
T1 construct: expressed in transfected cells; host or cells: human 293-EBNA cells, stably transfected
T1 sequence (P37058 1-310): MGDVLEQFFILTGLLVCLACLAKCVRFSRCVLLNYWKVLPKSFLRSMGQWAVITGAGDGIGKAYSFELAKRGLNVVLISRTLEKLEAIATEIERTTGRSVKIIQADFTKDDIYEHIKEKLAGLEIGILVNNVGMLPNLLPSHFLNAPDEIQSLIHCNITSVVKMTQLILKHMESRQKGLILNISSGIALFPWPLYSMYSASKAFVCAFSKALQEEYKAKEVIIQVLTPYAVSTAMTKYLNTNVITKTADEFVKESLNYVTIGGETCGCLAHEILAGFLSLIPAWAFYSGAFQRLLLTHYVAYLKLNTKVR
Method: Human 293-EBNA cells stably transfected with 17β-HSD3 were plated at 50,000 cells/well in 24 well plates in complete growth medium. After 48 h 2–3 nM [^3H]-androstenedione in assay medium (500 mL DMEM medium with 5 mL 100 × L-glutamine and 5 mL 7.5% sodium bicarbonate solution) was added with or without test compound at 1.5 mL/well (triplicate), and the cells incubated at 37 °C. Two hours later 1 mL medium was removed from each well and placed in a 125 × 16 mm glass test tube containing 25 µL of recovery solution (5000 dpm ^14C-testosterone and 25 µg unlabelled testosterone […], and the tubes vortexed at high speed for 2 × 30 s. After the samples had settled into two phases, they were snap-frozen in a dry ice/methanol bath. The upper organic phase was decanted into 75 × 12 mm tubes and evaporated to dryness under an airstream using a sample concentrator (TECHNE) at 40 °C. The samples were resuspended in ether (8 drops, then a further 3), spotted onto ca 60 F254 20 cm × 20 cm TLC plates and separated using a 4:1 v/v dichloromethane: ethyl acetate mobile phase. After drying the plates, the major spots were marked under a UV lamp, cut out and placed in individual scintillation vials containing 0.5 mL methanol. These were then shaken lightly and allowed to stand for 15 min before adding 10 mL of EcoScintA (scintillation fluid) to each tube along with 0.5 mL assay medium and counted in a scintillation spectrometer (Beckman, High Wycombe, Bucks, UK), using a program for duel [^3H/^14C] isotopes. The number of cells/well was then counted using a Coulter10 counter (Beckman). The inhibitory activity of the test compounds was then assessed by calculating the amount of product formed correcting for crossover between isotope counts, recovery, dilution and non-enzymatic degradation fmol/hr/million cells) with and without inhibitor (% inhibition).

[3] = tested on: androstenedione-stimulated tumour growth; set-up: method as in PMID 18786604, PMID 23132791; conditions: mouse model; cited from earlier work
[4] = set-up: method as in PMID 18786604, PMID 23132791; conditions: introduction; cited from earlier work
[5] = biological target: T2, 17β-HSD Type 2 (Homo sapiens, UniProt P37059); conditions: introduction; cited from earlier work
T2 sequence (P37059 1-387): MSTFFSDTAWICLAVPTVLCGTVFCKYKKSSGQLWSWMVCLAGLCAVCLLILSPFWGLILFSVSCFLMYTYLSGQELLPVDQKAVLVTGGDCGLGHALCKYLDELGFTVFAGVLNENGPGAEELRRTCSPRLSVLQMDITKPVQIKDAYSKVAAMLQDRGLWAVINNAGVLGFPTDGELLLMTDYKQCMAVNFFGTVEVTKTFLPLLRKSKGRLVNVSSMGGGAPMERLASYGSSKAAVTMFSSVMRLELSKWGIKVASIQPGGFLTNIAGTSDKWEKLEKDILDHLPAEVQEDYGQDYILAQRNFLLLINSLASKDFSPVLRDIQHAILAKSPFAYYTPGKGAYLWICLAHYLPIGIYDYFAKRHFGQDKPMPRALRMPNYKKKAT

[6] = Compound toxicity, MTS/Alamar Blue proliferation assay, LNCaP; assay type: cell-based; conditions: human, LNCaP (AR+) prostate cancer cells; read-out: Cytotoxicity IC50 (µM) LNCaP (AR+)
Method: (§1) AR+ (LNCaP) and AR- (PC-3) PCa cell lines were used as standard lines to determine the cytotoxicity of HSD3 inhibitor compounds. Toxicity was assessed over 96 h in 96 well plates using the standard MTS/Alamar Blue proliferation assay and over longer durations by cell counting methodologies.

[7] = Compound toxicity, MTS/Alamar Blue proliferation assay, PC-3; assay type: cell-based; conditions: human, PC-3 (AR-) prostate cancer cells; PC3 (AR-); read-out: Cytotoxicity IC50 (µM) PC3 (AR-)
Method: as §1

[8] = biological target: T2, 17β-HSD Type 2; assay: 17β-HSD2 activity assay in MDA-MB-231 cells (E2 to E1); assay type: cell-based; set-up: endogenous in cells; host or cells: MDA-MB-231 human breast cancer cells
Method: MDA-MB-231 human breast cancer cells in T25 flasks were incubated with 2 nM [^3H]-E2 (41.3 Ci/mmol; PerkinElmer, Beaconsfield, Bucks, UK) in the presence or absence of 10 µM candidate 17β-HSD3 inhibitors. After 3 h at 37 °C, the steroids were isolated from the mixture by extraction with diethyl ether and procedural losses were measured using [^14C]-E1 (5000 dpm; PerkinElmer). Separation of [^3H]-E1 from [^3H]-E2 was achieved using thin layer chromatography, eluting with dichloromethane/ethyl acetate, 4:1 v/v and the amount of [^3H]-E1 produced was calculated from the […] [^3H] counts detected and recovery of [^14C]-E1 (Beckman LS 6000 SC). A positive control was used in this assay (IC50 5.4 μM) to ensure reproducible results were obtained.

[9] = biological target: T3, 17β-HSD Type 1 (Homo sapiens, UniProt P14061); assay: 17β-HSD1 activity assay in T-47D breast cancer cells (estrone to estradiol); assay type: cell-based; conditions: T47D, T-47D cells; for inhibition at 10 µM: tested at 10 μM
T3 construct: endogenous in cells; host or cells: T-47D breast cancer cells
T3 sequence (P14061 1-328): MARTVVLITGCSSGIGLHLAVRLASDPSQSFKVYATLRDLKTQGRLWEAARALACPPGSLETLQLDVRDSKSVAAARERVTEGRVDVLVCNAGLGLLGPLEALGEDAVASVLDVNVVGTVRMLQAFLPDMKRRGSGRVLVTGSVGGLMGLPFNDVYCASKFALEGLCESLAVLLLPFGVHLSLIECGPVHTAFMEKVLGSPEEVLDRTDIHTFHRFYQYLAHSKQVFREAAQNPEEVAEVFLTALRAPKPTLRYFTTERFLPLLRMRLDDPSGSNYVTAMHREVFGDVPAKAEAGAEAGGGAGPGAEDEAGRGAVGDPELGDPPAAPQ
Method: The assay is of a similar format to the 17β-HSD Type 3 TLC assay. T-47D breast cancer cells, which express a high ratio of 17β-HSD Type 1 to 17β-HSD Type 2, were used to test the conversion of labelled estrone to estradiol in the presence and absence of the potential inhibitors. The cells were incubated with [^3H]-estrone at a concentration of 2 nM, in the absence or presence of the inhibitors (10 μM). After incubation of the culture for 3 h at 37 °C, the products were isolated and separated by TLC using DCM/ EtOAc (4:1). The amount of estradiol formed was measured and compared to the control cells, where no inhibitor was present. Each assay was carried out in the presence of a positive control (IC50 of 27 nM) to ensure reproducible results were obtained.

[10] = tested on: human 17β-HSD3; set-up: method as in PMID 22512907; conditions: whole HEK-293 cells over-expressing human 17β-HSD3; cited from earlier work
[11] = set-up: method as in PMID 22512907; conditions: given subcutaneously to rats; cited from earlier work
[12] = TLC assay, 293-EBNA[HSD3] cells, read-out: IC50 (17β-HSD3)

Structure (SMILES) | IC50 [2, 12] [nM] | IC50 at 96 h [6] [µM] | IC50 at 96 h [7] [µM] | inhibition at 10 µM [8] [%] | inhibition at 10 µM ([2]; TLC assay) [%] | melting point [°C] | inhibition at 10 µM [9] [%] | other results
CC(=O)N1CCCC(Nc2ccccc2Oc2ccc(Cl)cc2)c2ccccc21 (stereo not drawn) [STX2171] | 200 | 15.7 | 22 | 20.3 | – | – | – | cytotoxicity in words [1]: weakly cytotoxic; inhibition of androstenedione-stimulated tumour growth [3]: potent inhibition; androgenicity [4]: non-androgenic; selectivity for inhibition of 17β-HSD3 over 17β-HSD2 [5]: selective
CC(=O)Nc1ccccc1CNc1ccccc1Oc1ccc(Cl)cc1 [Compound 1, N-(2-([2-(4-Chloro-phenoxy)-phenylamino]-methyl)-phenyl)-acetamide] | 900 | – | – | 15.9 | 87 | 194 to 196 | – | inhibition at 1 µM ([9]; tested at 1 μM): 1.3%
CC(=O)N1CCC(CC(=O)N2CCN(C(c3ccc(Cl)cc3)c3ccc(Cl)cc3)C[C@@H]2C(C)(C)C)CC1 [SCH-451659] | – | 5.5 | 6.8 | 18.4 | – | – | 19.6 | IC50 ([2]; Table 10, read-out: Inhibition of 17β-HSD Type 3 (IC50 nM)): 5 nM
CC(=O)N1CCC(C(=O)Nc2ccccc2CNc2ccccc2Oc2ccc(Cl)cc2)CC1 [Compound 23, 1-Acetyl-piperidine-4-carboxylic acid (2-[2-(4-chloro-phenoxy)-phenylamino]-methyl-phenyl)-amide] | 3900 | – | – | – | 91 | 140 to 143 | -2.3 | –
C[C@@H]1CN(S(=O)(=O)c2ccccc2C(F)(F)F)[C@@H](C)CN1[C@@]1(O)CC[C@@]2(C)C(CCC3C2CC[C@]2(C)C(=O)CCC32)C1 (stereo partly drawn) [RM-532-105] | – | – | – | – | – | – | – | IC50 [10]: 0.005 µM; plasma levels of T and DHT [11]: significantly decreased
